Assay results as given in patent US20240277708A1, “Use of [1,2,4] Triazolo [4,3-B] Pyridazine Derivative For Preventing and Treating Senescence and Senescence-Related Diseases” (The Eighth Affiliated Hospital, Sun Yat-Sen University, priority 2023, published 2024).

How the values were obtained:
[1] = stated for a known small molecule drug, no test described; cited from earlier work
[2] = system: TERC−/− G4 mice; experiment: TERC−/− G4 senescence mouse model: survival and lung immunohistochemistry; type: in vivo
Procedure: Paraffin sections were melted at 65° C. for 1 h, rehydrated by rinsing in xylene for 10 min, xylene for 10 min, absolute ethanol for 3 min, 95% ethanol for 3 min, 85% ethanol for 3 min, 70% ethanol for 3 min and water, followed by two rinses with PBS for 5 min each. The sections were blocked with 3% hydrogen peroxide (in methanol) for 10 min, and then washed twice with PBS for 5 min each time. Then the sections were put into antigen retrieval buffer (pH 6.0) and heat by microwave for 10 min to retrieve antigen, then, slowly cool the solution at room temperature for 1 h, and wash the solution twice with PBS for 5 min each time. The sections were blocked with 10% goat serum for 1 h, incubated overnight with the primary antibodies at 4° C. in the dark, washed twice with PBS for 5 min each time, incubated with the secondary antibodies at room temperature in the dark for 30 min, and washed twice with PBS for 5 min each time. The sections were subjected to DAB color development and hematoxylin staining, and then rinsed in tap water for 8 min to produce a blue color. The sections were dehydrated with gradient alcohol, dried, and sealed with neutral gum.
1, TERC−/−G4 senescence mouse model: Mice had very long telomere length, and it took 3-6 generations of breeding to develop a premature senescence phenotype after telomerase knockout. TERC+/−mice were screened for TERC+/−mice as breeding protection. The first generation of TERC−/− mice was G1 mice. G1 mice were mated with each other to give birth to G2 mice, which continued to reproduce until G4. At this time, mice had very short telomeres and could develop senescence phenotype at 3-4 months of age.
2, Genotype identification of TERC knockout mice: Small segments of tails were cut from the identified mice and digested in 10 mM Tris-HCl 0.5% SDS 1 mM EDTA pH8.0 buffer containing 0.4 mg/mL proteinase K at 65° C. for 2 hours, and then 0.5 μL digestive solution was used as a template for PCR amplification. PCR products which were 250 bp indicated wild-type and 180 bp indicated TERC knockdown.
3, One-month-old G4 mice were given 68 mg/kg C1632 once a week, with 10 mice in each group.
4, Since senescent cells were mainly eliminated by immune cells in vivo, in addition to inhibiting the generation of senescent cells, the inventors also examined the effect of C1632 on the immune microenvironment of senescent lung tissue.

[3] = system: C57BL/6 mice; experiment: Safety profile in IPF model and control mice: body weight and routine blood test; type: in vivo
Procedure: In order to test the safety profile of C1632, the IPF model C57BL/6 mice and the control mice were intraperitoneally injected with 68 mg/kg C1632 three times a week and weighed, respectively. At the end of the experiment, the whole blood was a collected for routine blood test. […] In addition, the routine blood test results of mice in each group are mostly within the reference interval.

[4] = system: IPF mice (C57BL/6, bleomycin); experiment: Bleomycin-induced idiopathic pulmonary fibrosis (IPF) mouse model; type: in vivo
Procedure: A mouse model of […] was constructed by injecting bleomycin (2 mg/kg) into the lungs of the mice through the airway after anesthesia.
(1) Sacrificing the mice after anesthesia, and weighing the lungs and recording as Mlung; {umlaut over (2)} weighing the empty 1.5 mL centrifuge tube, filling with normal saline and the recording the weight of the centrifuge tube again; calculating the exact volume of the tube (Vtube) based on the weight and density of normal saline; (3) completely immersing the lung tissue in the normal saline of the centrifuge tube, covering the lid of centrifuge tube after removing the air, wiping off the water stains around the tube, and recording the weight as M; (4) calculating the weight of normal saline in the tube: […]; (5) calculating the volume of normal saline in the tube: Vsaline=[…], wherein, ρsaline is the density of normal saline; (6) calculating lung volume: Vlung=Vtube−Vsaline; and (7) calculating lung density: μlung=Mlung/Vlung.
The lung tissues were fixed by immersion in 4% paraformaldehyde and then gradiently dehydrated in 70% ethanol for 5 hours, 80% ethanol for 1 h, 90% ethanol for 1 h, 95% ethanol for 1 h, absolute ethanol for 1 h, absolute ethanol for 0.5 h, absolute ethanol+TO (1:1) for 1 h, TO for 1 h, TO for 1 h, paraffin (62° C.) for 1 h, paraffin (62° C.) for 1 h, paraffin (62° C.) for 1 h. After dehydration, the lung tissues were wrapped in the wax blocks and sectioned with a thickness of 4 μm. The paraffin sections were baked at 65° C. for 1 h and then exposed to xylene for 5 min, xylene for 5 min, absolute ethanol for 5 min, 95% ethanol for 5 min, 90% ethanol for 5 min, 85% ethanol for 5 min, 75% ethanol for 5 min; then, gently boiled in citric acid solution for 10 min and naturally cooled to room temperature, and exposed to 3% hydrogen peroxide for 10 min. The sections were blocked with goat antiserum for 1 h at room temperature, incubated overnight with primary antibodies against CD45 (abeam), CD3 (abeam) or CD68 (abeam), then washed 3 times with PBS for 5 min each time, and then incubated with immunohistochemical secondary antibodies (Fujian Maixin) at room temperature for 20 min. Then, the sections was subjected to color development for 2 min by using DAB chromogenic kit (Fujian Maixin), rinsed with water to remove DAB, stained with hematoxylin for 2 min and rinsed with running water for 8 minutes to return blue. After drying, the sections were sealed with neutral gum and photographed.
In this example, the degree of fibrosis in lung tissue was detected through Masson staining, using the Masson trichrome staining kit (Fujian Maixin).
To investigate whether C1632 can be used for the treatment of IPF, the inventors treated IPF mice with C1632 according to the method of FIG. 9A, and divided the mice into (1) normal mice+normal saline group; (2) normal mice+C1632 group; (3) IPF mice+normal saline group; and (4) IPF mice+C1632 group, each group had at least 4 mice. At the end of the experiment, the lung tissues of the mice were taken and photographed. […] The lungs of the model group are dark red, and some lung lobes are gray white, hardened, and scattered gray white plaques of different sizes could be seen.

[5] = normal mice, 68 mg/kg i.p. three times a week

## CC(=O)N(C)c1cccc(-c2ccc3nnc(C)n3n2)c1 [C1632]
[1]
  Solubility: can be dissolved in water, ethanol or DMSO
  Thermal stability: good thermal stability
[2]; 68 mg/kg once a week, survival curves FIG. 2A
  Life span of TERC−/− G4 mice: greatly extended the life span
[2]; TERC−/− G4 mice, 68 mg/kg once a week from one month of age, 3 and a half months after the experiment, FIG. 2A
  Mice still surviving when all control mice had died: 80%
[2]; lung tissues from senescence mice, FIG. 3
  Immunosuppressive T cell marker FOXP3 in senescent lung tissue (immunohistochemistry): reduces the immunosuppressive T cell marker FOXP3
[2]; lungs of TERC−/− G4 mice, 68 mg/kg once a week, FIG. 2B
  Lung tissue senescence (expression of senescence markers p16 and p21, immunohistochemistry): significantly inhibited lung tissue senescence
[3]; IPF mice, 68 mg/kg i.p. three times a week, FIG. 11B to 11S
  Routine blood tests overall: does not cause deterioration
[3]; IPF model and control mice, 68 mg/kg intraperitoneally three times a week, FIG. 11A
  Body weight compared with the corresponding saline group: does not significantly change the body weight
[3]; IPF model mice, 68 mg/kg i.p. three times a week
  Mean platelet volume (MPV), model group: no significant effect
[3]; fibrotic (IPF) mice, 68 mg/kg i.p. three times a week
  PDW, fibrotic mice: no significant effect
[3]; [5]
  Mean platelet volume (MPV), normal mice: significantly increase
  PDW, normal mice: significantly inhibits
[4]; IPF mice + C1632, FIG. 9C
  Lung density relative to water (lung lobes placed in water): less dense than water
[4]; IPF mice + C1632 vs IPF mice + saline, FIG. 9D
  Lung density (drainage method): significantly reduced
[4]; IPF mice + C1632 vs control group, FIG. 9B
  Lung shape, color and hardness (gross appearance): closer to those of the control group
[4]; IPF mice, injection of C1632, FIG. 10A, 10B
  Infiltration of CD45 (total immune cells) in lung, IHC: significantly reduces the infiltration of immune cells
[4]; IPF mice, injection of C1632, FIG. 10A, 10C
  Infiltration of CD68 (macrophages) in lung, IHC: significantly reduces the infiltration
[4]; IPF mice, injection of C1632, FIG. 10A, 10D
  Infiltration of CD3 (T cells) in lung, IHC: significantly reduces the infiltration
[4]; IPF mice, FIG. 9I
  Hydroxyproline content in lung: significantly inhibit the increase of hydroxyproline
[4]; lungs of C1632-treated IPF mice, FIG. 9E to 9G
  Alveolar architecture and fibrosis areas, H&E and Masson staining: more alveolar architecture and less fibrosis areas
